Measured values reported in US12636373B2, “Prodrugs with a tridentate self-immolative linker” (The General Hospital Corporation, priority 2018, dated 2026).
Like-named read-outs stand apart in the source and are kept apart here.

What was measured:
[1] = cited from earlier work
[2] = system: HT1080 fibrosarcoma cancer cells; experiment: Resazurin-based cytotoxicity assay, 72 h; conditions: for IC50: read-out: IC50 (concentration at which 50% of cells died)
Procedure: (§1) In vitro NP characterization: 5,000 cells per well were added to 96-well plates for cytotoxicity assessment; cells were treated after overnight seeding with compound or the appropriate buffer control (drug-free PLGA-PEG NP), and assessed for viability 72 h later using PrestoBlue (Life Technologies) following the manufacturer's protocol.

[3] = Pd-mediated uncaging of fluorogenic coumarin substrate (reaction kinetics and catalyst performance); conditions: PdCl2(TFP)2, HBSS
Procedure: Reaction kinetics and catalyst performance. Alloc-SIL-dPEG4-AMC (8) was reacted at a concentration of 5 μM with palladium catalyst (Pd-1, Pd-2, Pd-3, Pd-4) at a concentration of 10 μM in HBSS and MEM (see FIG. 8). Alloc2R110 was reacted at a concentration of 5 μM with Pd-1 at a concentration of 10 μM in HBSS as described previously.2 Fluorescence was monitored for 10 h at room temperature using 96 well plates and a Tecan Safire 2 fluorescence plate reader.

HT1080 cancer cells = experiment: Subcellular drug accumulation by intrinsic anthracycline fluorescence microscopy; assay type: cell-based, human; conditions: HT1080, 24 h
Procedure: FIGS. 3A-3D. […] Co-localization was determined by tabulating the fraction of NP-positive puncta (vesicles) in cells that contained high RFP expression or not (labeled red and gray, respectively; n>10 cells, bars are mean±std. dev.). b) Following 30 min pre-treatment with the indicated compounds, HT1080 cells were treated with the same NP as in a, and imaged 3 h later (n>6 biological replicates; mean±s.e.m.). c-d) HT1080 tumor cells were treated with C16proDOX, DOX, or Pd-NP with C16proDOX for 24 h, and then imaged by fluorescence microscopy (representative images shown in c) to evaluate subcellular drug accumulation based on endogenous anthracycline fluorescence (scale bar, 20 μm). Yellow lines (c) denote representative examples of how fluorescence intensity profiles were quantified from line-scans through cells (d), shown as means (thick line)±s.e.m. (shading; n>10), for hoechstand anthracycline fluorescence.

[4] = In vitro NP prodrug release in PBS; assay type: physicochemical; conditions: over 72 h at 37° C. in PBS
Procedure: Transmission electron microscopy (TEM) was performed in the Microscopy Core of the Center for Systems Biology/Program in Membrane Biology (MGH). […] Excess solution was blotted, grids were stained with phosphotungstic acid, and then blotted, dried and imaged. In vitro NP prodrug release was performed by incubating in PBS at 37° C., separating NPs using a 30 kDa molecular weight cutoff filter (Millipore Amicon) after 72 h, and measuring flow-through for drug content by absorbance (Nanodrop). NP was dissolved in DMF and also measured for drug content by absorbance. Pd-NP, Alloc2R110 and its nanoformulation, and all Pd compounds were synthesized and characterized as previously described.^5

HT1080 cells = assay type: cell-based, human; conditions: for uptake of fluorescent PLGA-PEG NPs: 30 min pre-treatment, imaged 3 h later
Procedure: In vitro NP uptake imaging. To quantify subcellular localization of NPs in HT1080 cells, Rab7a-RFP and Lamp1-RFP fusion constructs were expressed using a commercial baculovirus platform (CellLight BacMam 2.0, Invitrogen), following manufacturing guidelines. Pharmacological modulation of NP uptake was performed using the following: staurosporine (1 μM; LC labs), latrunculin B (1 μM; Tocris), cytochalasin D (1 μM; Sigma), chloroquine (50 μM; Sigma), and ethylisopropyl amiloride EIPA (100 μM; Tocris). Cells were rinsed in fresh media immediately prior to imaging; only adherent cells were quantified. Chloroquine dose-response measurements were normalized to the C16proDOX control (rather than the chloroquine-free control), in order to compare relative effects on the potency of Pd-mediated C16proDOX activation itself 50 μM chloroquine alone caused a 15-30% decrease in cell viability.

[5] = Resazurin-based cytotoxicity assay, 72 h; conditions: human, HT1080 fibrosarcoma cancer cells
Procedure: as §1

[6] = without the C16 anchor; cited from earlier work

C=CCOC(=O)N[C@H]1C[C@H](O[C@H]2C[C@](O)(C(=O)CO)Cc3c(O)c4c(c(O)c32)C(=O)c2c(OC)cccc2C4=O)O[C@@H](C)[C@H]1O [Alloc-DOX, reference compound]
myelotoxicity ([1]; dual Pd-NP and Alloc-DOX strategy): did not
IC50 ([2]; HT1080, 72 h, without Pd-NP): 18 µM
turn-on capacity in cytotoxicity ([2]; with vs without Pd-NP): ~700 ×

C=CCOC(=O)Nc1ccc(C(OC(=O)Nc2ccc3c(C)cc(=O)oc3c2)C(=O)NCCOCCOCCOCCO)cc1 (stereo not drawn) [Alloc-SIL-PEG4-AMC, Alloc-SIL-AMC-dPEG4]
uncaging rate relative to Alloc2R110 (calculated second order rate constants) [3]: approximately 1.5 fold

C=CCOC(=O)Nc1ccc(C(OC(=O)N[C@H]2C[C@H](O[C@H]3C[C@](O)(C(=O)CO)Cc4c(O)c5c(c(O)c43)C(=O)c3c(OC)cccc3C5=O)O[C@@H](C)[C@H]2O)C(=O)NCCCCCCCCCCCCCCCC)cc1 (stereo partly drawn) [C16proDOX, Alloc-SIL-C16-Dox]
subcellular accumulation (HT1080 cancer cells; co-incubation with Pd-NP): detectable increase of drug in the nucleus compared to the cytoplasm
subcellular accumulation (HT1080 cancer cells; without Pd-NP): accumulated primarily in cytoplasmic/perinuclear cellular compartments
release of the prodrug payload from the nanoformulation [4]: 20%±6%
IC20, fold higher than Alloc-DOX ([2]; HT1080, without Pd-NP): roughly 15 fold
IC20, fold higher than uncaged DOX ([2]; HT1080, without Pd-NP): ~1900 fold
IC50 ([2]; Homo sapiens, HT-1080, 72 h): > 50 µM

CCN(c1nc(N)c(C(=O)N=C(N)N)nc1Cl)C(C)C [EIPA, 5-(N-Ethyl-N-isopropyl)amiloride]
uptake of fluorescent PLGA-PEG NPs (HT1080 cells): acutely reduced the uptake of NPs

CCN(CC)CCCC(C)Nc1ccnc2cc(Cl)ccc12 (stereo not drawn) [chloroquine, reference compound]
impact on cytotoxicity of combined Pd-NP and C16proDOX treatment ([2]; HT1080, 50 μM chloroquine, 50 μM Pd-NP, 72 h): only modest impact
cytotoxicity at 72 h, 50 μM [5]: 15 to 30%
NP accumulation in vesicles (HT1080 cells; HT1080, 50 μM chloroquine co-treatment, 24 h): enhanced accumulation of NPs in distinctly large vesicles

C=C1[C@@H](C)[C@H]2[C@H](Cc3ccccc3)NC(=O)[C@]23[C@H](OC(C)=O)/C=C/[C@@](C)(O)C(=O)[C@@H](C)C/C=C/[C@H]3[C@@H]1O [cytochalasin D]
uptake of fluorescent PLGA-PEG NPs (HT1080 cells): acutely reduced the uptake of NPs

COc1cccc2c1C(=O)c1c(O)c3c(c(O)c1C2=O)C[C@@](O)(C(=O)CO)C[C@@H]3O[C@H]1C[C@H](N)[C@H](O)[C@H](C)O1 [doxorubicin, reference compound]
myelotoxicity ([1]; solvent- and nano-formulations, equimolar doses): exhibited myelotoxicity
subcellular accumulation (HT1080 cancer cells; without Pd-NP): primarily accumulates in the nuclei of cancer cells
IC50 ([2]; Homo sapiens, HT-1080, 72 h): 0.1 µM
nano-encapsulation efficiency (earlier report) [6]: 22%

C/C1=C/C(=O)O[C@@H]2C[C@@H](CC[C@H](C)/C=C\C=C\CC1)O[C@@](O)([C@@H]1CSC(=O)N1)C2 [latrunculin A]
uptake of fluorescent PLGA-PEG NPs (HT1080 cells): acutely reduced the uptake of NPs

CN[C@@H]1C[C@H]2O[C@@](C)([C@@H]1OC)n1c3ccccc3c3c4c(c5c6ccccc6n2c5c31)C(=O)NC4 [staurosporine]
uptake of fluorescent PLGA-PEG NPs (HT1080 cells): decreased NP accumulation
